In patent EP3478687B1 (Daewoong Pharmaceutical Co., Ltd., priority 2016, dated 2018):

Experiments:
[1] = biological target: T1, Recombinant purified human JAK3 (Homo sapiens, UniProt P52333); test: JAK3 kinase inhibitory activity, ADP-Glo kinase assay (Promega V9441); type: biochemical; conditions: ATP 5 uM, 4 ng JAK3 per reaction, 1 hour 30 °C, chemiluminescence
T1 construct: purchased Promega V9441
T1 sequence (P52333 1-1124): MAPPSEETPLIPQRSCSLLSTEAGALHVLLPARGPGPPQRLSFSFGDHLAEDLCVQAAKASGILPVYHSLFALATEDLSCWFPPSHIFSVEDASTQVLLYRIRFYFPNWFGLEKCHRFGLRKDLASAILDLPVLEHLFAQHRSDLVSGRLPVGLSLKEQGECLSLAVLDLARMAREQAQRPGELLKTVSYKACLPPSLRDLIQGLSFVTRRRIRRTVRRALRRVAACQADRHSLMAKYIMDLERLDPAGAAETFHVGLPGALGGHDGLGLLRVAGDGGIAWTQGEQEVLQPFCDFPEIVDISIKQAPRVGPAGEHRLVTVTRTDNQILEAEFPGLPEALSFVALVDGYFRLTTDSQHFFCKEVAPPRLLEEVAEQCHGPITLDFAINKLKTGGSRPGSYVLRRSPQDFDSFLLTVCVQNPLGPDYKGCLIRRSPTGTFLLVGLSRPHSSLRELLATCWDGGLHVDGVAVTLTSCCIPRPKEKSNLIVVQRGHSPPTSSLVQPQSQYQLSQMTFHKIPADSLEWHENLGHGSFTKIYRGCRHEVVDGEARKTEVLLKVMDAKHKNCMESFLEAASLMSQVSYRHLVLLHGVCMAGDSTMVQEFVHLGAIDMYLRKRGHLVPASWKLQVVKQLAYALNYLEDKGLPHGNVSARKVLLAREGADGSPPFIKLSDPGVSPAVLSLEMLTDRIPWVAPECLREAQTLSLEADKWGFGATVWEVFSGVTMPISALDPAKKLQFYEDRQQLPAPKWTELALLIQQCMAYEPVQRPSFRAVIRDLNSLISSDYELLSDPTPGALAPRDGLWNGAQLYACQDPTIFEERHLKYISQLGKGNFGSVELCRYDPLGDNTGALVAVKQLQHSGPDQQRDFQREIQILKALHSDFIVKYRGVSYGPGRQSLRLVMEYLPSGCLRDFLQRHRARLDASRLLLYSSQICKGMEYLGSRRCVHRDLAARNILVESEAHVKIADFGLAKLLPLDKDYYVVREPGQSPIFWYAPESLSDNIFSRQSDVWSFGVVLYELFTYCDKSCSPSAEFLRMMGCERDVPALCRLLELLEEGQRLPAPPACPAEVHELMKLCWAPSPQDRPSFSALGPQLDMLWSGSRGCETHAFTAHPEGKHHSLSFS
Protocol: (§1) JAK3 and BTK kinase inhibitory activities were measured for the compounds prepared in the above Examples through in vitro analysis on the ADP Glow (Glo) platform.
(§2) Specifically, the inhibitory activities of JAK3 and BTK kinase were measured using a JAK3 kinase assay kit (Promega, V9441) and a BTK kinase assay kit (Promega, V9071) which were purchased from Promega. Recombinant purified human JAK3 and BTK were diluted with 1 x kinase reaction buffer (JAK3: 40 mM Tris-Cl, pH 7.5, 20 mM MgCh, 0.1 mg/mL BSA and 50 uM DTT / BTK: 40 mM Tris-Cl, pH 7.5, 20 mM MgCl2, 0.1 mg/mL BSA, 2 mM MnCl2 and 50 uM DTT) and added to a 96 well plate (JAK3: final concentration of 4 ng per reaction/BTK: final concentration of 8 ng per reaction). The compounds were treated so as to be finally a 1% DMSO aqueous solution, and a substrate cocktail containing ATP (JAK3: final concentration of 5 uM / BTK: final concentration of 10 uM) and 0.2 µg/µL of Poly(Glu4, Tyr1) peptide (JAK3 and BTK final concentration) in the total 25 µL reactants was added to a 96-well plate to initiate enzymatic reaction. After incubation (30 °C) for 1 hour, equivalent volume (25 µL per reaction) of ADP Glo was added and incubated (30 °C) for 40 minutes at room temperature. Then, a kinase detection reagent (50 µL per reaction) was added and incubated (30 °C) for 30 minutes at room temperature. The kinase activity was measured by chemiluminescence according to the instructions of ADP Glo kinase assay kit, and the inhibitory activity of the compounds according to the present invention was calculated. For the analysis of the results of each compound, Microsoft Excel was used, and IC50 values were calculated by SigmaPlot software.

[2] = biological target: T2, Recombinant purified human BTK (Homo sapiens, UniProt Q06187); test: BTK kinase inhibitory activity, ADP-Glo kinase assay (Promega V9071); type: biochemical; conditions: ATP 10 uM, 8 ng BTK per reaction, 1 hour 30 °C, chemiluminescence
T2 construct: purchased Promega V9071
T2 sequence (Q06187 whole entry): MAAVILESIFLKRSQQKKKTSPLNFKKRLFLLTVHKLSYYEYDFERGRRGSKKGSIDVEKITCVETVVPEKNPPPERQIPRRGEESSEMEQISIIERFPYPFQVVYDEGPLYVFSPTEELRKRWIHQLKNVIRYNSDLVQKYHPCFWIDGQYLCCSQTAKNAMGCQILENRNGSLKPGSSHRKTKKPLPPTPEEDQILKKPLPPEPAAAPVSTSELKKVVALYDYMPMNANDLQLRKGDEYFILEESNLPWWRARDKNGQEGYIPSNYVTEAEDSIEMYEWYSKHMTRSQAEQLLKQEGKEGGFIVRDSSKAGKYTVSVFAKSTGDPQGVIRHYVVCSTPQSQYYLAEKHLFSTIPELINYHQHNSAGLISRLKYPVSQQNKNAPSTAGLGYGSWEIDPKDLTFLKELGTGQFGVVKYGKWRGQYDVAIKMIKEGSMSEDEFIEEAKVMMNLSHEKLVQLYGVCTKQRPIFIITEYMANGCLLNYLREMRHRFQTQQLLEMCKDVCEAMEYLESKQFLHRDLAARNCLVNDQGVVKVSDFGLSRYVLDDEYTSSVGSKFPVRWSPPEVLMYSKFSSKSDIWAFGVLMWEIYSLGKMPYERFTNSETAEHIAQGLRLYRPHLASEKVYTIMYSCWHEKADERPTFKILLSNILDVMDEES
Protocol: as §1, §2

SMILES	IC50 [1] [nM]	IC50 [2] [nM]
C=CC(=O)N1CCC[C@@H](Nc2nc(Nc3cnn(Cc4cccc(OC)c4)c3)nc3[nH]cc(Cl)c23)C1 [Example 41, (R)-1-(3-(5-chloro-2-(1-(3-methoaybenzyl)-1H-pyrazol-4-ylamino)-7H-pyrrolo[2,3-d]pyrimidin-4-ylamino)piperidin-1-yl)prop-2-en-1-one]	0.5	1.8
C=CC(=O)N1CCC[C@@H](Nc2nc(Nc3ccc(N4CCN(C)CC4)cc3)nc3[nH]nc(Cl)c23)C1 [Example 42]	5.1	3.2
C=CC(=O)N1CCC[C@@H](Nc2nc(Nc3cnn(CC(F)F)c3)nc3[nH]nc(Cl)c23)C1 [Example 44, (R)-1-(3-(3-chloro-6-(1-(2,2-difluoroethyl)-1H-pyrazol-4-ylamino)-1H-pyrazolo[3,4-d]pyrimidin-4-ylamino)piperidin-1-yl)prop-2-en-1-one]	0.3	2.5
C=CC(=O)N1CCC[C@@H](Nc2nc(Nc3cnn(C)c3)nc3[nH]nc(Cl)c23)C1 [Example 45, (R)-1-(3-(3-chloro-6-(1-methyl-1H-pyrazol-4-ylamino)-1H-pyrazolo [3,4-d]pyrimidin-4-ylamino)piperidin-1-yl)prop-2-en-1-one]	0.7	2.9
C=CC(=O)N1CCC[C@@H](Nc2nc(Nc3cnn(C4CCOCC4)c3)nc3[nH]nc(Cl)c23)C1 [Example 48, (R)-1-(3-(3-chloro-6-(1-(tetrahydro-2H-pyran-4-yl)-1H-pyrazol-4-ylamino)-1H-pyrazolo[3,4-d]pyrimidin-4-ylamino)piperidin-1-yl)prop-2-en-1-one]	0.4	0.9
C=CC(=O)N1CCC[C@@H](Nc2nc(Nc3cnn(C4CC4)c3)nc3[nH]nc(Cl)c23)C1 [Example 49, (R)-1-(3-(3-chloro-6-(1-cyclopropyl-lH-pyrazol-4-ylamino)-1H-pyrazolo [3,4-d]pyrimidin-4-ylamino)piperidin-1-yl)prop-2-en-1-one]	0.7	0.9
C=CC(=O)N1CCC[C@@H](Nc2nc(Nc3cnn(C(C)C)c3)nc3[nH]nc(Cl)c23)C1 [Example 50, (R)-1-(3-(3-chloro-6-(1-isopropyl-1H-pyrazol-4-ylamino)-1H-pyrazolo[3,4-d]pyrimidin-4-ylamino)piperidin-1-yl)prop-2-en-1-one]	0.8	1.8
C=CC(=O)N1CCC[C@@H](Nc2nc(Nc3cnn(CC#N)c3)nc3[nH]nc(Cl)c23)C1 [Example 52, (R)-2-(4-(4-(1-acryloylpiperidin-3-ylamino)-3-chloro-1H-pyrazolo[3,4-d]pyrimidin-6-ylamino)-1H-pyrazol-1-yl)acetonitrile]	0.2	0.8
C=CC(=O)N1CCC[C@@H](Nc2nc(Nc3cnn(CC(C)C)c3)nc3[nH]nc(Cl)c23)C1 [Example 55, (R)-1-(3-(3-chloro-6-(1-isobutyl-1H-pyrazol-4-ylamino)-1H-pyrazolo [3,4-d]pyrimidin-4-ylamino)piperidin-1-yl)prop-2-en-1-one]	1.3	1.2
C=CC(=O)N1CCC[C@@H](Nc2nc(Nc3cnn(CCN(CC)CC)c3)nc3[nH]nc(Cl)c23)C1 [Example 57, (R)-1-(3-(3-chloro-6-(1-(2-(diethylamino)ethyl)-1H-pyrazol-4-ylamino)-1H-pyrazolo [3,4-d]pyrimidin-4-ylamino)piperidin-1-yl)prop-2-en-1-one]	0.4	1.8
C=CC(=O)N1CCC[C@@H](Nc2nc(Nc3cnn(CC(=O)NC)c3)nc3[nH]cc(Cl)c23)C1 [Example 60, (R)-2-(4-((4-((1-acryloylpiperidin-3-yl)amino)-5-chloro-7H-pyrrolo[2,3-d]pyrimidin-2-yl)amino)-lH-pyrazol-1-yl)-N-methylacetamide]	0.2	1.7
C=CC(=O)N1CCC[C@@H](Nc2nc(Nc3cnn(C4CC4)c3)nc3[nH]cc(Cl)c23)C1 [Example 62, (R)-1-(3-((5-chloro-2-((1-cyclopropyl-1H-pyrazol-4-yl)amino)-7H-pyrrolo[2,3-d]pyrimidin-4-yl)amino)piperidin-1-yl)prop-2-en-1-one]	0.2	1.7

Continued by falling IC50 [1], values first:

IC50 [1] [nM]	IC50 [2] [nM]	SMILES
9.9	6.7	C=CC(=O)N1CCC[C@@H](Nc2nc(Nc3ccc(-n4nc(C)cc4C)cc3)nc3[nH]nc(Cl)c23)C1 [Example 43]
1.4	1.8	C=CC(=O)N1CCC[C@@H](Nc2nc(Nc3cnoc3)nc3[nH]nc(Cl)c23)C1 [Example 59, (R)-1-(3-(3-chloro-6-(isoxazol-4-ylamino)-1H-pyrazolo[3,4-d]pyrimidin-4-ylamino)piperidin-1-yl)prop-2-en-1-one]
1.1	5.2	C=CC(=O)N1CCC[C@@H](Nc2nc(Nc3cnn(CC(=O)NC)c3)nc3[nH]nc(Cl)c23)C1 [Example 47, (R)-2-(4-(4-(1-acryloylpiperidin-3-ylamino)-3-chloro-1H-pyrazolo[3,4-d]pyrimidin-6-ylamino)-1H-pyrazol-1-yl)-N-methylacetamide]
1.1	1.7	C=CC(=O)N1CCC[C@@H](Nc2nc(Nc3ccc(N4CCOCC4)cc3)nc3[nH]cc(Cl)c23)C1 [Example 61, (R)-1-(3-((5-chloro-2-((4-morpholinophenyl)amino)-7H-pyrrolo[2,3-d]pyrimidin-4-yl)amino)piperidin-1-yl)prop-2-en-1-one]
1	0.9	C=CC(=O)N1CCC[C@@H](Nc2nc(Nc3cnn(C(C)(C)C)c3)nc3[nH]nc(Cl)c23)C1 [Example 53, (R)-1-(3-(6-(1-tert-butyl-1H-pyrazol-4-ylamino)-3-chloro-1H-pyrazolo[3,4-d]pyrimidin-4-ylamino)piperidin-1-yl)prop-2-en-1-one]
0.8	1.8	C=CC(=O)N1CCC[C@@H](Nc2nc(Nc3cnn(CCC)c3)nc3[nH]nc(Cl)c23)C1 [Example 51, (R)-1-(3-(3-chloro-6-(1-propyl-lH-pyrazol-4-ylamino)-1H-pyrazolo [3,4-d]pyrimidin-4-ylamino)piperidin-1-yl)prop-2-en-1-one]
0.7	1.8	C=CC(=O)N1CCC[C@@H](Nc2nc(Nc3cnn(CCN4CCOCC4)c3)nc3[nH]nc(Cl)c23)C1 [Example 54, (R)-1-(3-(3-chloro-6-(1-(2-morpholinoethyl)-1H-pyrazol-4-ylamino)-1H-pyrazolo [3,4-d]pyrimidin-4-ylamino)piperidin-1-yl)prop-2-en-1-one]
0.5	1.8	C=CC(=O)N1CCC[C@@H](Nc2nc(Nc3cnn(Cc4cccc(OC)c4)c3)nc3[nH]nc(Cl)c23)C1 [Example 58, (R)-1-(3-(3-chloro-6-(1-(3-methoaybenzyl)-1H-pyrazol-4-ylamino)-1H-pyrazolo[3,4-d]pyrimidin-4-ylamino)piperidin-1-yl)prop-2-en-1-one]
0.3	1.8	C=CC(=O)N1CCC[C@@H](Nc2nc(Nc3cnn(CC(F)(F)F)c3)nc3[nH]nc(Cl)c23)C1 [Example 56, (R)-1-(3-(3-chloro-6-(1-(2,2,2-trifluoroethyl)-1H-pyrazol-4-ylamino)-1H-pyrazolo[3,4-d]pyrimidin-4-ylamino)piperidin-1-yl)prop-2-en-1-one]
